# From paper PMC5974779, “Prediction of Drug-Induced Hepatotoxicity Using Long-Term Stable Primary Hepatic 3D Spheroid Cultures in Chemically Defined Conditions” (Toxicological Sciences, 2018)
# Read-outs that look alike come from different tables or passages of the source.
# Key:
# [1] = system: primary human hepatocytes (PHH) 3D spheroids
# clinical DILI in man = conditions: cited from earlier work
# [2] = therapeutic total cmax; ref PMID; cited from earlier work
# [3] = ref DrugBank and Prescribers' Digital Reference database; cited from earlier work
# PHH 2D sandwich cultures = conditions: cited from earlier work; for hepatotoxicity detection in 2D sandwich cultures of PHH: 100× cmax, 24 h, high content imaging
# [4] = system: PHH micropatterned cocultures with murine embryonic fibroblasts; conditions: cited from earlier work
# [5] = system: PHH spheroids (hanging-drop); conditions: cited from earlier work
# in vitro = conditions: human
# [6] = clinical DILI classification in man (POS/NEG)
# [7] = clinical DILI classification used in this study, Supplementary Table 2, ref Chen et al., 2011, Guo et al., 2005, O'Brien et al., 2006, Sakatis et al., 2012, Suzuki et al., 2010, Xu et al., 2008
# [8] = clinical DILI classification, Supplementary Table 1, ref Chen et al., 2011, Guo et al., 2005, O'Brien et al., 2006, Sakatis et al., 2012, Suzuki et al., 2010, Xu et al., 2008
# [9] = PHH 2D sandwich cultures, 100x Cmax, ref Xu 2008
# [10] = micropatterned cocultures, 100x Cmax, ref Khetani 2013
# [11] = PHH hanging-drop spheroids, 100x Cmax, ref Proctor 2017
# [12] = FDA drug labeling DILI concern, ref Chen et al., 2011
# [13] = FDA drug labeling DILI score, ref Chen et al., 2011
# [14] = clinical DILI classification, ref Xu et al. (2008)
# [15] = reported pattern of liver damage, Supplementary Table 2, ref literature
Compound,Chemically defined spheroids (this study) 20x [1],Cmax [2] [µM],Extent of hepatic metabolism [3],2Dsw (Xu 2008) 100x (PHH 2D sandwich cultures; [9]),"MPCC (Khetani 2013) 100x [4, 10]","Hanging-drop spheroids (Proctor 2017) 100x [5, 11]",Classified as (clinical DILI in man; in vivo),Clinical DILI class (panel heading of Figure 4) (clinical DILI in man; in vivo),DILI in vivo (clinical DILI in man; in vivo),FDA (0-8) (clinical DILI in man; in vivo),Sakatis et al. (2012) (clinical DILI in man; in vivo),Type of DILI (clinical DILI in man; in vivo),Xu et al. (2008) (clinical DILI in man; in vivo),further results
CNCCc1ccccn1 [Betahistine],Negative,0.0037,Moderate,Negative,Negative,–,–,–,–,–,–,–,–,DILI in vivo (clinical DILI in man; [6]): POS; Classified as (clinical DILI in man; [7]): POS; DILI in vivo (clinical DILI in man; [8]): POS
O=C1CC2(CCCC2)CC(=O)N1CCCCN1CCN(c2ncccn2)CC1 [Buspirone],Negative,–,–,Negative,Negative,Negative,–,–,–,–,–,–,–,hepatotoxicity evaluation in CD-spheroids [1]: not hepatotoxic
O=C(O)Cc1ccccc1Nc1c(Cl)cccc1Cl [Diclofenac],Positive,–,–,Positive,Positive,Positive,–,–,–,–,–,–,–,–
CNCCC(Oc1ccc(C(F)(F)F)cc1)c1ccccc1 (stereo not drawn) [Fluoxetine],Negative,–,–,–,–,–,NEG,DILI negative,NEG,3,non-hepatotixic,Non-hepatotoxic,Negative,"Suzuki et al. (2010) (clinical DILI in man; in vivo): 2; 2Dsw (Xu 2008) 100x (PHH 2D sandwich cultures): Negative; MPCC (Khetani 2013) 100x [4]: Negative; hepatotoxicity classification in hanging-drop PHH spheroids ([5]; 100× cmax, 2 weeks, ref Proctor et al., 2017): flagged as hepatotoxic; Hanging-drop spheroids (Proctor 2017) 100x [5]: Positive"
COC1=CC(=O)C[C@@H](C)[C@]12Oc1c(Cl)c(OC)cc(OC)c1C2=O [Griseofulvin],Negative,4.54,Extensive,–,–,–,–,–,–,–,–,–,–,"viability at 14 days, 20 × cmax (in vitro): > 100%"
CN(C)CCCN1c2ccccc2CCc2ccccc21 [Imipramine],–,–,Extensive,Negative,Positive,Positive,–,–,–,–,–,–,–,"hepatotoxicity detection in 2D sandwich cultures of PHH (PHH 2D sandwich cultures; ref Xu et al., 2008): liver toxicity was not recognized"
CCN(CC)CC(=O)Nc1c(C)cccc1C [Lidocaine],–,–,–,Negative,Positive,–,–,–,–,–,–,–,–,–
Cc1cccc(Nc2ccccc2C(=O)O)c1C [Mefenamic Acid],Positive,26.9,Extensive,Positive,Positive,–,POS,Severe DILI,POS,8,Hepatotoxic,Hepatocellular injury,Positive,–
CNCCC=C1c2ccccc2CCc2ccccc21 [Nortriptyline],Positive,1.5,Extensive,Negative,Positive,–,–,–,–,–,–,–,–,FDA (Severity) (clinical DILI in man; [12]): most DILI concern; FDA (0-8) (clinical DILI in man; [13]): 8; DILI in vivo (clinical DILI in man; [6]): POS; Classified as (clinical DILI in man; [7]): POS; DILI in vivo (clinical DILI in man; [8]): POS; Xu et al. (2008) (clinical DILI in man; [14]): Positive; Type of DILI (clinical DILI in man; [15]): Hepatocellular injury
CN1C(C(=O)Nc2ccccn2)=C(O)c2ccccc2S1(=O)=O [Piroxicam],Negative,5.13,Extensive,Negative,Negative,–,POS,High DILI concern,POS,3,Hepatotoxic,"Hepatocellular injury, Cholestatic injury or Mixed hepatitis",Positive,FDA (Severity) (clinical DILI in man; in vivo): less DILI concern; Guo et al. (2005) (clinical DILI in man; in vivo): 2; O'Brien et al. (2003) (clinical DILI in man; in vivo): Severely; Suzuki et al. (2010) (clinical DILI in man; in vivo): 1
CC(=O)[C@H]1CC[C@H]2[C@@H]3CCC4=CC(=O)CC[C@]4(C)[C@H]3CC[C@]12C [Progesterone],Negative,0.193,–,Negative,Negative,–,NEG,DILI negative,NEG,2,non-hepatotixic,Non-hepatotoxic,Positive,Suzuki et al. (2010) (clinical DILI in man; in vivo): 1
C=C[C@H]1C[N@@]2CC[C@H]1C[C@H]2[C@H](O)c1ccnc2ccc(OC)cc12 [Quinine],Positive,9.25,–,–,–,–,–,–,–,–,–,–,–,2Dsw (Xu 2008) 100x (PHH 2D sandwich cultures): Positive; MPCC (Khetani 2013) 100x [4]: Positive
Cc1cn([C@H]2C=C[C@@H](CO)O2)c(=O)[nH]c1=O [Stavudine],Negative,3.46,Minimal,Negative,–,Negative,–,–,–,–,–,–,–,"Suzuki et al. (2010) (clinical DILI in man; DILI classification score, ref Suzuki et al. (2010)): 2; FDA (Severity) (clinical DILI in man; [12]): most DILI concern; FDA (0-8) (clinical DILI in man; [13]): 8; DILI in vivo (clinical DILI in man; [6]): POS; Classified as (clinical DILI in man; [7]): POS; DILI in vivo (clinical DILI in man; [8]): POS; Xu et al. (2008) (clinical DILI in man; [14]): Positive; O'Brien et al. (2003) (clinical DILI in man; clinical hepatotoxicity classification, ref O'Brien et al. (2003)): Severely; Sakatis et al. (2012) (clinical DILI in man; clinical hepatotoxicity classification, ref Sakatis et al. (2012)): Hepatotoxic; Type of DILI (clinical DILI in man; [15]): Cholestatic injury or Mixed hepatitis"
O=c1n(CCCN2CCN(c3cccc(Cl)c3)CC2)nc2ccccn12 [Trazodone],Positive,5.1,Extensive,Positive,Positive,–,POS,High DILI concern,POS,5,–,"Hepatocellular injury, Cholestatic injury or Mixed hepatitis",Positive,FDA (Severity) (clinical DILI in man; in vivo): less DILI concern
CC(c1cc2ccccc2s1)N(O)C(N)=O (stereo not drawn) [Zileuton],Negative,13.1,Extensive,Positive,–,Negative,POS,High DILI concern,POS,5,Hepatotoxic,Hepatocellular injury,Positive,"hepatotoxicity evaluation in CD-spheroids [1]: predicted to be DILI negative; FDA (Severity) (clinical DILI in man; in vivo): most DILI concern; O'Brien et al. (2003) (clinical DILI in man; in vivo): Severely; hepatotoxicity detection in 2D sandwich cultures of PHH (PHH 2D sandwich cultures; ref Xu et al., 2008): flagged as hepatotoxic; reactive oxygen species levels in 2D sandwich cultures of PHH (PHH 2D sandwich cultures; ref Xu et al., 2008): only slight increases in reactive oxygen species levels"
